Where “and” joins values, the source holds several entries; their conditions need not be identical. Equal values may be shown once.
Legend:
A549 cell xenograft = experiment: Subcutaneous xenograft mouse model, tumor growth; format: in vivo; details: A549 s.c. xenograft, nude mice; intratumoral 40 or 60 μM, 20 μL per tumor every two days; 20 days; vs HBSS control; n = 5
Description: (§1) U‐87MG cells (3 × 10^6/mouse), A549 cells (5 × 10^6/mouse), or MDA‐MB‐231 cells (3 × 10^6/mouse) were inoculated subcutaneously (s.c.) into the hind leg flanks of athymic 8‐week‐old male nude mice (Envigo, Huntingdon, UK). Tumor size was measured using a digital caliper and volume was calculated, and when reached 50–100 mm^3 for each tumor type, mice were randomly divided into two groups (five mice per group). […] The xenografts were injected (two points, 20 μL per tumor) every two days. Beginning on the day of inoculation, mouse weight and tumor volume were monitored twice a week. Experiments were terminated after 14, 29, or 20 days for U‐87MG‐, MDA‐MB‐231‐, or A549‐based tumors, respectively. The mice were sacrificed and tumors were excised. Half of each tumor was fixed in 4% buffered formaldehyde, paraffin‐embedded, and processed for IHC, while the second half was frozen in liquid nitrogen for immunoblotting and qPCR analyses. These experimental protocols were approved by the Institutional Animal Care and Use Committee of Ben‐Gurion University.

[1] = test system: MDA‐MB‐231 cell xenograft; experiment: Subcutaneous xenograft mouse model, tumor growth; format: in vivo; details: MDA‐MB‐231 s.c. xenograft, nude mice; intratumoral 40 or 60 μM, 20 μL per tumor every two days; 29 days; vs HBSS control; n = 5
Description: as §1

U‐87MG cell xenograft = experiment: Subcutaneous xenograft mouse model, tumor growth; format: in vivo; details: U‐87MG s.c. xenograft, nude mice; intratumoral 40 or 60 μM, 20 μL per tumor every two days; 14 days; vs HBSS control; n = 5
Description: as §1

[2] = test system: A549‐, MDA‐MB‐231‐, and U‐87MG‐derived tumors; experiment: qPCR of excised xenograft tumors; format: in vivo, mouse
Description: as §1
Total RNA was isolated from untreated and peptide‐treated tumors (three mice each) using an RNeasy Mini Kit (Qiagen, Hilden, Germany) according to the manufacturer's instructions. Total RNA quality was analyzed using the Agilent RNA 6000 Nano Kit. […] The levels of target genes were normalized relative to β‐actin mRNA levels. Samples were amplified by a 7300 Real‐Time PCR System (Applied Biosystems) for denaturation step of 5 min at 95 °C and 40 cycles using the following PCR parameters: 95 °C for 15 s, 60 °C for 1 min, and 72 °C for 1 min. The copy numbers for each sample were calculated by the CT‐based calibrated standard curve method. The mean fold changes (±SE) of three replicates were calculated.

[3] = test system: HeLa cells (HK‐I in cytosolic fraction); experiment: Mitochondria‐bound HK detachment, cell fractionation and immunoblotting; format: cell-based, human; details: peptide 3, 5, 10 μM, 3 h, digitonin […], immunoblot (Fig. 4E)
Description: Peptide‐induced HK detachment from mitochondria to the cytosol was also analyzed by immunoblotting. […] Samples were centrifuged at 12 000 g at 4 °C for 10 min, and the obtained supernatants (cytosolic fraction) and pellets (mitochondria) were analyzed by immunoblotting using anti‐HK‐I, anti‐VDAC1, and anti‐GAPDH antibodies, and then with secondary HRP‐conjugated antibodies.

A549 cells [4] = experiment: Apoptosis, acridine orange/ethidium bromide staining; format: cell-based, human; details: A549, 3 h; quantitation, mean ± SE (n = 3) (Fig. 5E)
Description: (§2) For PI and annexin V–FITC staining, A549 or MDA‐MB‐231 cells, untreated or treated with VDAC1‐based peptides, were collected (1500 g for 5 min), washed, and resuspended in 200 μL binding buffer (10 mM HEPES/NaOH (pH 7.4), 140 mM NaCl, and 2.5 mM CaCl2). Annexin V–FITC staining was performed according to the recommended protocol. Cells were then washed once with binding buffer and resuspended in 200 μL binding buffer, to which PI was added immediately before flow cytometric analysis. At least 10 000 events were collected, recorded on a dot plot, and analyzed by flow cytometer. Acridine orange/ethidium bromide staining was carried as described previously (Zaid et al., 2005), with cells visualized by fluorescence microscopy (Olympus LX2‐KSP, Tokyo, Japan), and images were captured with a CCD camera. About 200 cells were counted for each experiment.

A549 cells [5] = experiment: Apoptosis, annexin V–FITC/PI staining and flow cytometry; format: cell-based, human; details: A549, 3 h, serum‐free, 37 °C (Figs 5F,G; also MDA‐MB‐231, Fig. S2B,C)
Description: as §2

[6] = treated tumors vs control, n = 3 (Fig. 7D,E)

Question: Which results are given for `CC[C@H](C)[C@H](NC(=O)[C@H](Cc1ccc(O)cc1)NC(=O)[C@@H]1CCCN1C(=O)[C@H](CCCNC(=N)N)NC(=O)[C@H](Cc1c[nH]cn1)NC(=O)[C@@H](CO)NC(=O)[C@@H](Cc1c[nH]c2ccccc12)NC(=O)[C@H](NC(=O)[C@@H](Cc1c[nH]c2ccccc12)NC(=O)[C@@H](CCC(=O)O)NC(=O)[C@@H](CCCCN)NC(=O)[C@@H](CCCCN)NC(=O)[C@@H](CC(C)C)NC(=O)[C@@H](CCC(=O)O)NC(=O)[C@H](NC(=O)[C@@H](C)NC(=O)[C@H](NC(=O)[C@@H](CC(N)=O)NC(=O)[C@@H](CC(C)C)NC(=O)[C@@H](C)NC(=O)[C@@H](Cc1c[nH]c2ccccc12)NC(=O)[C@H](NC(=O)[C@@H](C)NC(=O)CNC(=O)[C@@H](CC(N)=O)NC(=O)[C@@H](CO)NC(=O)[C@@H](CC(N)=O)NC(=O)[C@@H](CCCCN)NC(=O)[C@@H](Cc1c[nH]c2ccccc12)NC(=O)[C@H](NC(=O)[C@@H](Cc1c[nH]c2ccccc12)NC(=O)[C@H](N)CCCCN)[C@H](C)O)[C@H](C)O)C(C)C)[C@H](C)O)[C@H](C)O)C(=O)N[C@@H](C)C(=O)N[C@@H](Cc1c[nH]cn1)C(=O)O` [R‐Tf‐D‐LP4]?
Answer: decrease in tumor volume (A549 cell xenograft): ~ 80% and 70–80%; decrease in tumor volume [1]: ~ 80% and 70–80%; decrease in tumor volume (U‐87MG cell xenograft): ~ 80% and 70–80%; decrease in expression of Glut‐1, HK‐I and GAPDH ([2]; A549, MDA‐MB‐231, U‐87MG tumors vs control (Fig. 8)): three‐ to fourfold; p53 expression levels, elevation ([2]; A549‐, MDA‐MB‐231‐, U‐87MG‐derived tumors, n = 3 (Fig. 7D–F)): over two‐ to fivefold; Caspase‐8 overexpression [2, 6]: two‐ to threefold; SMAC/Diablo expression levels, increase [2, 6]: two‐ to fivefold; caspase‐3 overexpression [2, 6]: two‐ to threefold; Cyto c expression, increase ([2]; treated tumors vs control, n = 3 (Fig. 7D,F)): two‐ to fourfold; increase in HK in the cytosolic fraction [3]: about twofold; apoptotic cell death (acridine orange/ethidium bromide) (A549 cells [4]): over 70%; apoptotic cell death (annexin V–FITC and PI staining) (A549 cells [5]): over 90%

Source: PMC6026870, “Selective induction of cancer cell death by VDAC1‐based peptides and their potential use in cancer therapy” (Molecular Oncology, 2018)
